According to ChEMBL document CHEMBL5260810, “Inhibition of bromodomain-containing protein 9 for the prevention of epigenetically-defined drug resistance” (Bioorg Med Chem Lett, 2017):

Legend:
[1] = tested on: OCI-AML-5; experiment: Cytotoxicity against human OCI-AML5 cells measured after 8 days; format: functional, cell-based; settings: OCI-AML-5, 192 h
[2] = Cytotoxicity against human PL-21 cells measured after 8 days; format: functional, cell-based; settings: PL-21, 192 h
[3] = tested on: HT; experiment: Cytotoxicity against human HT cells measured after 8 days; format: functional, cell-based; settings: 192 h
[4] = tested on: MX1; experiment: Cytotoxicity against human MX1 cells measured after 8 days; format: functional, cell-based; settings: MX1, 192 h
[5] = tested on: COLO 320DM; experiment: Cytotoxicity against human COLO 320DM cells measured after 8 days; format: functional, cell-based; settings: 192 h
[6] = tested on: COLO-741; experiment: Cytotoxicity against human COLO-741 cells measured after 8 days; format: functional, cell-based; settings: COLO-741, 192 h
[7] = tested on: RKO; experiment: Cytotoxicity against human RKO cells measured after 8 days; format: functional, cell-based; settings: 192 h
[8] = target: T1, ATPase family AAA domain-containing protein 2B (Homo sapiens, UniProt Q9ULI0); experiment: Binding affinity to human partial length ATAD2B (Q955 to R1082 residues) expressed in bacterial expression system by BROMOscan assay
T1 sequence (Q9ULI0 whole entry): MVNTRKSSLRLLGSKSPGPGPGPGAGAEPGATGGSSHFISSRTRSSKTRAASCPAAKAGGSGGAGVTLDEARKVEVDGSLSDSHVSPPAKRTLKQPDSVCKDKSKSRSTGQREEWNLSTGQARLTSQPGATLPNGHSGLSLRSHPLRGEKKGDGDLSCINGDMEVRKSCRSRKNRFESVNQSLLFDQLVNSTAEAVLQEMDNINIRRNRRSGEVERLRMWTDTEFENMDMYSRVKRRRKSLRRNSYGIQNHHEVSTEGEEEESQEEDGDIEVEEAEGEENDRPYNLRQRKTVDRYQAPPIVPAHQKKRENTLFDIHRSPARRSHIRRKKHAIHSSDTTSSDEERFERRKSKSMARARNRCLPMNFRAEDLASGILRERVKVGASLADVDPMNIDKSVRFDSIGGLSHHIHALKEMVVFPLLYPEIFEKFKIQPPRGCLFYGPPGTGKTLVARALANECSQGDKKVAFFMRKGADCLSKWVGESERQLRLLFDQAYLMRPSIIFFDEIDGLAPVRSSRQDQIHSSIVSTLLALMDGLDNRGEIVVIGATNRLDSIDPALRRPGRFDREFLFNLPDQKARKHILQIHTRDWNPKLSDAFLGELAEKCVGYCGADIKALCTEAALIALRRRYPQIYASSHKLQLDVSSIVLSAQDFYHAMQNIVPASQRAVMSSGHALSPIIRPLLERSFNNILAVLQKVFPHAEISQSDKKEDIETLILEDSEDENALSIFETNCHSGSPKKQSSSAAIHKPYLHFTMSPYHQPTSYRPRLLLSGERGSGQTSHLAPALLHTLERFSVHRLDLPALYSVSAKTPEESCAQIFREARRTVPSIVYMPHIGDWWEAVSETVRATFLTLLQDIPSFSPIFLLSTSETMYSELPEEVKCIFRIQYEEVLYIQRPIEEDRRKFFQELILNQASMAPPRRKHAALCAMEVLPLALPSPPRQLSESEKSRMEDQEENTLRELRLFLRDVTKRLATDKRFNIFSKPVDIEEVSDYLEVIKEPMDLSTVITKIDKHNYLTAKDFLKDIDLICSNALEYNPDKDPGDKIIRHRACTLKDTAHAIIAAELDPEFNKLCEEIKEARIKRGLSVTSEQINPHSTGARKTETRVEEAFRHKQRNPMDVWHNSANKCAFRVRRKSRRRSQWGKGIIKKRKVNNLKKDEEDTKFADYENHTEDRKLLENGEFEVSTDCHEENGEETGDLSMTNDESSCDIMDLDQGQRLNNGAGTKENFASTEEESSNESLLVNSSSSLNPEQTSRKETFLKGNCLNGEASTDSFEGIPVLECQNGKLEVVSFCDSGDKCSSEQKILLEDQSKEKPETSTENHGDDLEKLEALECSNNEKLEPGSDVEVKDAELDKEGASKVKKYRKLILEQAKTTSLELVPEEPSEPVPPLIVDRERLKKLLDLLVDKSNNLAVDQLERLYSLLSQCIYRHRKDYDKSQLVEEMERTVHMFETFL

[9] = target: Bromodomain-containing protein 8 (Homo sapiens, UniProt Q9H0E9); experiment: Binding affinity to BRD8 bromodomain 2 (unknown origin) by BROMOscan assay
Chain of Bromodomain-containing protein 8 (Q9H0E9 whole entry, the tested form may be a part): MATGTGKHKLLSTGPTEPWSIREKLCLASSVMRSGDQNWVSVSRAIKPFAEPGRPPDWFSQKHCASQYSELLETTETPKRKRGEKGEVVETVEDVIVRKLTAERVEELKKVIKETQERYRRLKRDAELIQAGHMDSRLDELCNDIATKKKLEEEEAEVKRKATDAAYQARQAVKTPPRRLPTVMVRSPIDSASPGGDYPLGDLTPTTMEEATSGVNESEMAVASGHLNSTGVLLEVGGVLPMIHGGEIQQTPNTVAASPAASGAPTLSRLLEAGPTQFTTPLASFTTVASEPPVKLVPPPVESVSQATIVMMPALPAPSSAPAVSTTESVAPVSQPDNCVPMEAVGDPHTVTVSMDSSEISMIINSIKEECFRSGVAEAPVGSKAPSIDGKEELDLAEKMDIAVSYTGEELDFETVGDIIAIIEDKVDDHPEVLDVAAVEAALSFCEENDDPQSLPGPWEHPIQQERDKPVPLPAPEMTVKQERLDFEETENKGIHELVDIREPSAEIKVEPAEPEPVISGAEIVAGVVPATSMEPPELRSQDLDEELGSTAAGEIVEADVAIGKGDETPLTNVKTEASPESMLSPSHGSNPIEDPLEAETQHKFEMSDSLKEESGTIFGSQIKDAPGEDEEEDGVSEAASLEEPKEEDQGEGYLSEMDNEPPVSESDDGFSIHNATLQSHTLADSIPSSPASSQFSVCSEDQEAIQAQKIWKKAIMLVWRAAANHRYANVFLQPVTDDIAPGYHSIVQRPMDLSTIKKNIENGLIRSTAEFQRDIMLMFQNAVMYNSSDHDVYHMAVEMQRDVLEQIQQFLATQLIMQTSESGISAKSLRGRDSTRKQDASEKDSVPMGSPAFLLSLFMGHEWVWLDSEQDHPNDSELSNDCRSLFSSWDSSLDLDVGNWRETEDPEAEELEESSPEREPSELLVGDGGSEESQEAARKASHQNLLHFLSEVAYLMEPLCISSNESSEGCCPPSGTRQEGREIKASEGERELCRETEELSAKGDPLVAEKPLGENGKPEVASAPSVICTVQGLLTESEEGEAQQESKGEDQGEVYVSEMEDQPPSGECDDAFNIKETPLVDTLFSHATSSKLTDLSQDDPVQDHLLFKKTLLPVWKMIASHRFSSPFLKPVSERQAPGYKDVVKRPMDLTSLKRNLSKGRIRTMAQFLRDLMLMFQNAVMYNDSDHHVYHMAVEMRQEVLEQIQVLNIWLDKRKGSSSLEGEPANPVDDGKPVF

[10] = target: T2, Transcription intermediary factor 1-alpha (Homo sapiens, UniProt O15164); experiment: Binding affinity to human partial length TRIM24 (P790 to P977 residues) expressed in bacterial expression system by BROMOscan assay
T2 sequence (O15164 whole entry): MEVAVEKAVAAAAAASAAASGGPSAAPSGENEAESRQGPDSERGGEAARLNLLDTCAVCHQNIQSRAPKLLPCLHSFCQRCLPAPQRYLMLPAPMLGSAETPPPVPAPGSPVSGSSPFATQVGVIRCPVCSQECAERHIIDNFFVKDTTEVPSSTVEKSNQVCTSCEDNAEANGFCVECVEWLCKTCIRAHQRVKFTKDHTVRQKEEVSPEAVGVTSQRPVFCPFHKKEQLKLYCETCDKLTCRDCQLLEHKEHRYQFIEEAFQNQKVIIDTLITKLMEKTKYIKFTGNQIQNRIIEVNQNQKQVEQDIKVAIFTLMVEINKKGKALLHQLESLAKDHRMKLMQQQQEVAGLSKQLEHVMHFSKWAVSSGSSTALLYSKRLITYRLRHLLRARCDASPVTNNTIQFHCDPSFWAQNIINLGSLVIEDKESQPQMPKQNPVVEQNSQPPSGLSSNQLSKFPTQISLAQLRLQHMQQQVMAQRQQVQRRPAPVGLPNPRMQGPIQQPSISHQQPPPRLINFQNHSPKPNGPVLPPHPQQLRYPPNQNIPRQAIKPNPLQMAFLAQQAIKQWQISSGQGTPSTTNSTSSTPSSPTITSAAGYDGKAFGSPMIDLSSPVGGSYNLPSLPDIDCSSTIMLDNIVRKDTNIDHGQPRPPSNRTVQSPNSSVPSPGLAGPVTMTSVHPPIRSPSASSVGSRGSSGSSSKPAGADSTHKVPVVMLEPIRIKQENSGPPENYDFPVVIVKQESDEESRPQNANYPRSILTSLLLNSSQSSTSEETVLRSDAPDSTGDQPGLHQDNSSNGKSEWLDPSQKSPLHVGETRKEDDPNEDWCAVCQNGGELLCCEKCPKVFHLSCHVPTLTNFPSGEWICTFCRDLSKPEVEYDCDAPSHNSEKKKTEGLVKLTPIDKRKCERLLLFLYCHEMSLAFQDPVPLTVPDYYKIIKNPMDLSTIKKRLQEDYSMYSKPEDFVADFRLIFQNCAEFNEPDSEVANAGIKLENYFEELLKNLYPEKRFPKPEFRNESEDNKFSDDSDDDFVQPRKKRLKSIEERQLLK

[11] = target: Cyclin-dependent kinase 5/CDK5 activator 1 (Homo sapiens) (UniProt Q00535+Q15078); experiment: Inhibition of CDK5/p25 (unknown origin) at 1 uM relative to control; format: protein-complex assay
Chain of Cyclin-dependent kinase 5/CDK5 activator 1 (Homo sapiens) (Q00535 whole entry): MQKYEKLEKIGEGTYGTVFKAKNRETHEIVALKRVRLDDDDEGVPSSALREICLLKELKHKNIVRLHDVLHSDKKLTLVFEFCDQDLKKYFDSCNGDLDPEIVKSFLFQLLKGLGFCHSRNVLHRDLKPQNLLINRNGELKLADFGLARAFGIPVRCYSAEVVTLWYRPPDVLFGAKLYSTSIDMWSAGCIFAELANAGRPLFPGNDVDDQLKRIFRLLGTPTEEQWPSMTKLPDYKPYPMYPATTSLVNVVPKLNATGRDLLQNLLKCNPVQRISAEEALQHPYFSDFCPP
Chain of Cyclin-dependent kinase 5/CDK5 activator 1 (Homo sapiens) (Q15078 99-307 partner limits assumed): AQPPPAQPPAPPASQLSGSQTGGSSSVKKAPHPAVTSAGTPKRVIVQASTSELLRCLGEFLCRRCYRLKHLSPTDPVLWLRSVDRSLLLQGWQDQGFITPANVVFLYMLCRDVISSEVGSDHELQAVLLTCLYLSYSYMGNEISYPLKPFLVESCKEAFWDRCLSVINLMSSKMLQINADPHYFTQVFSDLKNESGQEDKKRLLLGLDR

[12] = species on record: Rattus norvegicus; experiment: Displacement of [3H]batrachotoxinin from rat brain sodium voltage gated ion channel site 2 at 10 uM after 60 mins by scintillation counting analysis relative to control

Row | SMILES | IC50 [1] | IC50 [2] | IC50 [3] | IC50 [4] | IC50 [5] | IC50 [6] | IC50 [7] | Kd [8] | Kd [9] | Kd [10] | inhibition [11] | Activity [12]
1 | C/C=C/Cn1cc(-c2ccc(C(C)(C)O)cc2OC)c2cc[nH]c2c1=O | 20 µM | 20 µM | 20 µM | 20 µM | 20 µM | 20 µM | 20 µM | > 10 µM | > 10 µM | > 10 µM | -0.5% | 12%
2 | C/C=C/Cn1cc(-c2cc(OC)c(C(C)(C)O)cc2OC)c2cc(C)[nH]c2c1=O | – | – | – | – | – | – | – | > 10 µM | > 10 µM | > 10 µM | – | –
3 | C/C=C/Cn1cc(-c2ccc(C(=O)N3CCOCC3)cc2)c2cc[nH]c2c1=O | 20 µM | 20 µM | 20 µM | 20 µM | 20 µM | 20 µM | 20 µM | > 10 µM | > 10 µM | 26 µM | -1.5% | 11%
4 | C/C=C/Cn1cc(-c2cc(OC)c(C(=O)N3CCOCC3)cc2OC)c2cc(C)[nH]c2c1=O | 2 µM | 2 µM | 2 µM | 2 µM | 2 µM | 2 µM | 2 µM | > 10 µM | > 10 µM | > 10 µM | 0% | 17%
